Test results from patent publication EP3375430A1, “FRAGRANCE COMPOSITIONS” (Takasago International Corporation, priority 2017, dated 2018).

How the values were obtained:
[1] = Headspace concentration of fragrance ingredients over blotter (thermal desorption GC-MS); type: physicochemical;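 on headspace concentration in composition C1 compared to control EdT1: C1 is an invention composition and EdT1 a conventional EdT of fragrance TAK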
Summary of the method: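 Fragrance (100µL) applied to a 10 cm perfumers' blotter held on a 32°C hot plate, equilibrated 5 min; headspace drawn through Tenax TA tubes at 17mL/min until 280mL collected, repeated at later sampling times. Tubes thermally desorbed splitless onto HP-5MS column, GC-MS detection, mass range 35 to 350.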

[2] = Amount of fragrance ingredients retained on paper blotter after evaporation (ethanol extraction, GC-MS); type: physicochemical
Summary of the method: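 100 µL of fragrance formulation applied to paper blotters kept at 32°C open to air; at each time three blotters extracted 1 h in ethanol with methyl decanoate internal standard and analysed by GC-MS (HP-5MS, 50–280°C). Amounts averaged over triplicates and expressed as percent of time-zero level.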

CC(=O)OC1CCCCC1C(C)(C)C (centres unmarked) [Verdox™, (2-tert-butylcyclohexyl) acetate]
headspace concentration in composition C8 compared to control EdT4 ([1]; COM1 dosed at 20 wt%, up to 8 hours, Figures 8 to 10): significantly higher | headspace concentration in composition C1 compared to control EdT1 ([1]; fragrance TAK, T0 + 4h, Figure 3): significantly greater | headspace concentration in composition C14 compared to control EdT1 ([1]; fragrance TAK, T0+4h and T0+8h, Figures 17 and 18): significantly greater | headspace concentration in composition C15 compared to control EdT1 ([1]; fragrance TAK, T0+4h and T0+8h, Figures 20 and 21, difference significant for linalool, linalyl acetate and Verdox™): greater | headspace concentration in composition C1 compared to control EdT1 ([1]; fragrance TAK, T0 + 8h, Figure 4): much greater | headspace concentration in composition C1 compared to control EdT1 ([1]; fragrance TAK, after 1 hour, Figure 2): greater | amount of fragrance ingredient retained on blotter (percentage of the initial amount) ([2]; Table 3, fragrance TAK in C1, 15 min, 32°C): 80% | amount of fragrance ingredient retained on blotter (percentage of the initial amount) ([2]; Table 3, fragrance TAK in C1, 60 min, 32°C): 62% | amount of fragrance ingredient retained on blotter (percentage of the initial amount) ([2]; Table 3, fragrance TAK in C1, 120 min, 32°C): 39% | amount of fragrance ingredient retained on blotter (percentage of the initial amount) ([2]; Table 3, fragrance TAK in C1, 240 min, 32°C): 18% | amount of fragrance ingredient retained on blotter (percentage of the initial amount) ([2]; Table 3, fragrance TAK in C1, 480 min, 32°C): 2% | amount of fragrance ingredient retained on blotter (percentage of the initial amount) ([2]; Table 3, fragrance TAK in EdT1, 15 min, 32°C): 70% | amount of fragrance ingredient retained on blotter (percentage of the initial amount) ([2]; Table 3, fragrance TAK in EdT1, 60 min, 32°C): 29% | amount of fragrance ingredient retained on blotter (percentage of the initial amount) ([2]; Table 3, fragrance TAK in EdT1, 120 min, 32°C): 2% | amount of fragrance ingredient retained on blotter (percentage of the initial amount) ([2]; Table 3, fragrance TAK in EdT1, 240 min, 32°C): <1% | amount of fragrance ingredient retained on blotter (percentage of the initial amount) ([2]; Table 3, fragrance TAK in EdT1, 480 min, 32°C): 1% | amount of fragrance ingredient retained on blotter (percentage of the initial amount) ([2]; Table 3, fragrance TAK in EdT1 or C1, T0, set at 100% (normalisation)): 100% | amount of fragrance ingredient retained on blotter (percentage of the initial amount) ([2]; Table 4, fragrance TAK in C2, 15 min, 32°C): 92% | amount of fragrance ingredient retained on blotter (percentage of the initial amount) ([2]; Table 4, fragrance TAK in C2, 480 min, 32°C): 3% | amount of fragrance ingredient retained on blotter (percentage of the initial amount) ([2]; Table 4, fragrance TAK in EdT1, 15 min, 32°C): 74% | amount of fragrance ingredient retained on blotter (percentage of the initial amount) ([2]; Table 4, fragrance TAK in EdT1, 480 min, 32°C): <1% | amount of fragrance ingredient retained on blotter (percentage of the initial amount) ([2]; Table 4, fragrance TAK in EdT1 or C2, T0, set at 100% (normalisation)): 100% | amount of fragrance ingredient retained on blotter (percentage of the initial amount) ([2]; Table 5, fragrance TAK in C3, 15 min, 32°C): 83% | amount of fragrance ingredient retained on blotter (percentage of the initial amount) ([2]; Table 5, fragrance TAK in C3, 60 min, 32°C): 64% | amount of fragrance ingredient retained on blotter (percentage of the initial amount) ([2]; Table 5, fragrance TAK in C3, 120 min, 32°C): 44% | amount of fragrance ingredient retained on blotter (percentage of the initial amount) ([2]; Table 5, fragrance TAK in C3, 240 min, 32°C): 27% | amount of fragrance ingredient retained on blotter (percentage of the initial amount) ([2]; Table 5, fragrance TAK in C3, 480 min, 32°C): 3% | amount of fragrance ingredient retained on blotter (percentage of the initial amount) ([2]; Table 5, fragrance TAK in C3, 1440 min, 32°C): <1% | amount of fragrance ingredient retained on blotter (percentage of the initial amount) ([2]; Table 5, fragrance TAK in EdT1, 15 min, 32°C): 70% | amount of fragrance ingredient retained on blotter (percentage of the initial amount) ([2]; Table 5, fragrance TAK in EdT1, 60 min, 32°C): 27% | amount of fragrance ingredient retained on blotter (percentage of the initial amount) ([2]; Table 5, fragrance TAK in EdT1, 120 min, 32°C): 2% | amount of fragrance ingredient retained on blotter (percentage of the initial amount) ([2]; Table 5, fragrance TAK in EdT1, 240 min, 32°C): <1% | amount of fragrance ingredient retained on blotter (percentage of the initial amount) ([2]; Table 5, fragrance TAK in EdT1, 480 min, 32°C): 1% | amount of fragrance ingredient retained on blotter (percentage of the initial amount) ([2]; Table 5, fragrance TAK in EdT1, 1440 min, 32°C): <1% | amount of fragrance ingredient retained on blotter (percentage of the initial amount) ([2]; Table 5, fragrance TAK in EdT1 or C3, T0, set at 100% (normalisation)): 100% | amount of fragrance ingredient retained on blotter (percentage of the initial amount) ([2]; Table 6, fragrance TAK in C4, 15 min, 32°C): 83% | amount of fragrance ingredient retained on blotter (percentage of the initial amount) ([2]; Table 6, fragrance TAK in C4, 60 min, 32°C): 64% | amount of fragrance ingredient retained on blotter (percentage of the initial amount) ([2]; Table 6, fragrance TAK in C4, 120 min, 32°C): 36% | amount of fragrance ingredient retained on blotter (percentage of the initial amount) ([2]; Table 6, fragrance TAK in C4, 240 min, 32°C): 18% | amount of fragrance ingredient retained on blotter (percentage of the initial amount) ([2]; Table 6, fragrance TAK in C4, 480 min, 32°C): 3% | amount of fragrance ingredient retained on blotter (percentage of the initial amount) ([2]; Table 6, fragrance TAK in EdT1, 15 min, 32°C): 70% | amount of fragrance ingredient retained on blotter (percentage of the initial amount) ([2]; Table 6, fragrance TAK in EdT1, 60 min, 32°C): 29% | amount of fragrance ingredient retained on blotter (percentage of the initial amount) ([2]; Table 6, fragrance TAK in EdT1, 120 min, 32°C): 2% | amount of fragrance ingredient retained on blotter (percentage of the initial amount) ([2]; Table 6, fragrance TAK in EdT1, 240 min, 32°C): <1% | amount of fragrance ingredient retained on blotter (percentage of the initial amount) ([2]; Table 6, fragrance TAK in EdT1, 480 min, 32°C): 1% | amount of fragrance ingredient retained on blotter (percentage of the initial amount) ([2]; Table 6, fragrance TAK in EdT1 or C4, T0, set at 100% (normalisation)): 100% | amount of fragrance ingredient retained on blotter (percentage of the initial amount) ([2]; Table 9, fragrance COM1 in C5, T0 + 15 min): 75.1% | amount of fragrance ingredient retained on blotter (percentage of the initial amount) ([2]; Table 9, fragrance COM1 in C5, T0 + 480 min): 1.9% | amount of fragrance ingredient retained on blotter (percentage of the initial amount) ([2]; Table 9, fragrance COM1 in C5, T0 +1440 min): <1% | amount of fragrance ingredient retained on blotter (percentage of the initial amount) ([2]; Table 9, fragrance COM1 in C6, T0 + 15 min): 66.4% | amount of fragrance ingredient retained on blotter (percentage of the initial amount) ([2]; Table 9, fragrance COM1 in C6, T0 + 480 min): 1.7% | amount of fragrance ingredient retained on blotter (percentage of the initial amount) ([2]; Table 9, fragrance COM1 in C6, T0 +1440 min): 1.0% | amount of fragrance ingredient retained on blotter (percentage of the initial amount) ([2]; Table 9, fragrance COM1 in EdT2, C5 or C6, T0, set at 100% (normalisation)): 100% | amount of fragrance ingredient retained on blotter (percentage of the initial amount) ([2]; Table 9, fragrance COM1 in EdT2, T0 + 15 min): 61.7% | amount of fragrance ingredient retained on blotter (percentage of the initial amount) ([2]; Table 9, fragrance COM1 in EdT2, T0 + 480 min): 3.7% | amount of fragrance ingredient retained on blotter (percentage of the initial amount) ([2]; Table 9, fragrance COM1 in EdT2, T0 +1440 min): 2.90%
